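Assay format: 96-well plates, 48-hour exposure. GI50 = concentration required for 50% inhibition of growth.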 The source made the active and inactive calls. Cut-off read from the data, not from the text of the source: active = GI50 up to about 1.1 µM and inactive = higher.
What was measured:
Experiment in all cases: DTP human tumour cell line panel, 48 h
CAKI-1 = system: CAKI-1
LOX IMVI = system: LOX IMVI
HCT-116 = system: HCT-116
NCI-H460 = system: NCI-H460
OVCAR-3 = system: OVCAR-3
SK-MEL-5 = system: SK-MEL-5
HOP-92 = system: HOP-92
SK-MEL-2 = system: SK-MEL-2
OVCAR-8 = system: OVCAR-8
SF-268 = system: SF-268
DU-145 = system: DU-145
SW-620 = system: SW-620
RPMI-8226 = system: RPMI-8226
BT-549 = system: BT-549
COLO 205 = system: COLO 205
SR = system: SR
IGROV-1 = system: IGROV-1
HOP-62 = system: HOP-62
PC-3 = system: PC-3
K562 = system: K562

Structure (SMILES) | GI50 (CAKI-1) | GI50 (LOX IMVI) | GI50 (HCT-116) | GI50 (NCI-H460) | GI50 (OVCAR-3) | GI50 (SK-MEL-5) | GI50 (HOP-92) | GI50 (SK-MEL-2) | GI50 (OVCAR-8) | GI50 (SF-268) | GI50 (DU-145) | GI50 (SW-620) | GI50 (RPMI-8226) | GI50 (BT-549) | GI50 (COLO 205) | GI50 (SR) | GI50 (IGROV-1) | GI50 (HOP-62) | GI50 (PC-3) | GI50 (K562)
CC(C)/C=C1\CCC(CN(C)C)C1=O (stereo not given) | 1.32 µM (inactive) | 4.99 µM (inactive) | 0.871 µM (active) | 18.9 µM (inactive) | 2.82 µM (inactive) | 4.97 µM (inactive) | 1.31 µM (inactive) | 7.05 µM (inactive) | 2 µM (inactive) | 8.85 µM (inactive) | 1.81 µM (inactive) | 0.656 µM (active) | 0.13 µM (active) | 3.17 µM (inactive) | 0.586 µM (active) | 0.951 µM (active) | 7.05 µM (inactive) | 18.4 µM (inactive) | 4.66 µM (inactive) | 0.893 µM (active)
CCOc1ccc(Nc2nc(N)nc(N)c2N=O)cc1 | 10.9 µM (inactive) | 32.1 µM (inactive) | > 100 µM (inactive) | 32.9 µM (inactive) | 24.6 µM (inactive) | 49.5 µM (inactive) | 17.9 µM (inactive) | 65.2 µM (inactive) | 51.1 µM (inactive) | 89.7 µM (inactive) | 38 µM (inactive) | 91.2 µM (inactive) | 47.4 µM (inactive) | 45.6 µM (inactive) | > 100 µM (inactive) | 71.1 µM (inactive) | 7.69 µM (inactive) | 50.1 µM (inactive) | 28.4 µM (inactive) | 53.5 µM (inactive)
CC12CCCC3(CC(=O)C(C)(C)C3C(=O)C1)C2 (stereo not given) | > 100 µM (inactive) | > 100 µM (inactive) | > 100 µM (inactive) | > 100 µM (inactive) | > 100 µM (inactive) | > 100 µM (inactive) | > 100 µM (inactive) | > 100 µM (inactive) | > 100 µM (inactive) | > 100 µM (inactive) | > 100 µM (inactive) | > 100 µM (inactive) | > 100 µM (inactive) | > 100 µM (inactive) | > 100 µM (inactive) | > 100 µM (inactive) | > 100 µM (inactive) | > 100 µM (inactive) | > 100 µM (inactive) | > 100 µM (inactive)
Cc1cccc(C)c1NC(=O)C(Cc1c[nH]c2ccccc12)NC(=O)OCc1ccccc1 (stereo not given) | 16.9 µM (inactive) | 19.5 µM (inactive) | 23.9 µM (inactive) | 17.7 µM (inactive) | 22.9 µM (inactive) | 13.5 µM (inactive) | 22.4 µM (inactive) | 16.9 µM (inactive) | 27.3 µM (inactive) | 18.7 µM (inactive) | 17 µM (inactive) | 27.8 µM (inactive) | 15.6 µM (inactive) | 24.8 µM (inactive) | 13.2 µM (inactive) | 22.5 µM (inactive) | 19.6 µM (inactive) | 41 µM (inactive) | 12.3 µM (inactive) | 30.2 µM (inactive)
Cc1nn(C(=O)c2ccncc2)c2c1C(c1ccccc1)SC(=N)N2 (stereo not given) | > 10 µM (inactive) | > 10 µM (inactive) | > 10 µM (inactive) | > 10 µM (inactive) | > 10 µM (inactive) | > 10 µM (inactive) | > 10 µM (inactive) | > 10 µM (inactive) | > 10 µM (inactive) | > 10 µM (inactive) | > 10 µM (inactive) | > 10 µM (inactive) | > 10 µM (inactive) | > 10 µM (inactive) | > 10 µM (inactive) | > 10 µM (inactive) | > 10 µM (inactive) | > 10 µM (inactive) | > 10 µM (inactive) | > 10 µM (inactive)
CO/N=[N+](\[O-])NC(C)C | > 100 µM (inactive) | > 100 µM (inactive) | > 100 µM (inactive) | > 100 µM (inactive) | > 100 µM (inactive) | > 100 µM (inactive) | > 100 µM (inactive) | > 100 µM (inactive) | > 100 µM (inactive) | > 100 µM (inactive) | > 100 µM (inactive) | > 100 µM (inactive) | > 100 µM (inactive) | > 100 µM (inactive) | > 100 µM (inactive) | > 100 µM (inactive) | > 100 µM (inactive) | > 100 µM (inactive) | > 100 µM (inactive) | > 100 µM (inactive)
CN1CCN(CCCCN2c3ccccc3Sc3ccc(C(=O)c4ccccc4)cc32)CC1 | 1.44 µM (inactive) | 1.46 µM (inactive) | 1.82 µM (inactive) | 1.54 µM (inactive) | 1.66 µM (inactive) | 1.54 µM (inactive) | 1.82 µM (inactive) | 1.77 µM (inactive) | 1.5 µM (inactive) | 2.23 µM (inactive) | 2.29 µM (inactive) | 1.73 µM (inactive) | 1.79 µM (inactive) | 1.65 µM (inactive) | 1.75 µM (inactive) | 1.41 µM (inactive) | 1.72 µM (inactive) | 1.6 µM (inactive) | 1.5 µM (inactive) | 1.48 µM (inactive)
O=C(O)CCC(NC(=O)c1ccc(Oc2nc3ccccc3nc2C(=O)O)cc1)C(=O)O (stereo not given) | > 100 µM (inactive) | > 100 µM (inactive) | > 100 µM (inactive) | > 100 µM (inactive) | > 100 µM (inactive) | > 100 µM (inactive) | > 100 µM (inactive) | > 100 µM (inactive) | > 100 µM (inactive) | > 100 µM (inactive) | > 100 µM (inactive) | > 100 µM (inactive) | > 100 µM (inactive) | 33.3 µM (inactive) | > 100 µM (inactive) | > 100 µM (inactive) | > 100 µM (inactive) | > 100 µM (inactive) | > 100 µM (inactive) | > 100 µM (inactive)
O=C(O)C1C2C=CC(O2)C1C(=O)NCc1cccnc1 (stereo not given) | > 100 µM (inactive) | > 100 µM (inactive) | > 100 µM (inactive) | > 100 µM (inactive) | > 100 µM (inactive) | > 100 µM (inactive) | > 100 µM (inactive) | > 100 µM (inactive) | > 100 µM (inactive) | > 100 µM (inactive) | > 100 µM (inactive) | > 100 µM (inactive) | > 100 µM (inactive) | > 100 µM (inactive) | > 100 µM (inactive) | > 100 µM (inactive) | > 100 µM (inactive) | > 100 µM (inactive) | > 100 µM (inactive) | > 100 µM (inactive)
COc1cc(CCN)c(OC)c(OC)c1 | > 100 µM (inactive) | > 100 µM (inactive) | 44.4 µM (inactive) | > 100 µM (inactive) | > 100 µM (inactive) | 23.6 µM (inactive) | 62.4 µM (inactive) | > 100 µM (inactive) | > 100 µM (inactive) | > 100 µM (inactive) | > 100 µM (inactive) | 36.2 µM (inactive) | 93.3 µM (inactive) | > 100 µM (inactive) | > 100 µM (inactive) | 50.8 µM (inactive) | > 100 µM (inactive) | > 100 µM (inactive) | > 100 µM (inactive) | 62.1 µM (inactive)
CCOC(=O)c1nc2ccc(C(F)(F)F)cc2[nH]c1=O | > 100 µM (inactive) | > 100 µM (inactive) | > 100 µM (inactive) | > 100 µM (inactive) | > 100 µM (inactive) | > 100 µM (inactive) | > 100 µM (inactive) | > 100 µM (inactive) | > 100 µM (inactive) | > 100 µM (inactive) | > 100 µM (inactive) | > 100 µM (inactive) | > 100 µM (inactive) | > 100 µM (inactive) | > 100 µM (inactive) | > 100 µM (inactive) | > 100 µM (inactive) | > 100 µM (inactive) | > 100 µM (inactive) | > 100 µM (inactive)
C=C1CC[C@@H]2C13[C@@H]1[C@H](CC(=O)[C@@]23C)C1(C)C (stereo not given in full) | > 100 µM (inactive) | > 100 µM (inactive) | > 100 µM (inactive) | > 100 µM (inactive) | 21.6 µM (inactive) | > 100 µM (inactive) | > 100 µM (inactive) | > 100 µM (inactive) | 35.9 µM (inactive) | > 100 µM (inactive) | > 100 µM (inactive) | 51.4 µM (inactive) | > 100 µM (inactive) | > 100 µM (inactive) | 84.5 µM (inactive) | 11.7 µM (inactive) | 55.7 µM (inactive) | 24 µM (inactive) | > 100 µM (inactive) | 81.5 µM (inactive)
O=C(O)c1cc(=O)c2c(OCC(O)COc3cccc4oc(C(=O)O)cc(=O)c34)cccc2o1 | > 100 µM (inactive) | > 61.4 µM (inactive) | > 74.8 µM (inactive) | > 100 µM (inactive) | > 100 µM (inactive) | > 65.9 µM (inactive) | > 63.8 µM (inactive) | > 56.4 µM (inactive) | 99.5 µM (inactive) | > 100 µM (inactive) | > 100 µM (inactive) | > 83 µM (inactive) | > 70.1 µM (inactive) | > 100 µM (inactive) | > 68.4 µM (inactive) | > 81.8 µM (inactive) | > 60.5 µM (inactive) | > 91.2 µM (inactive) | > 100 µM (inactive) | > 90.2 µM (inactive)
CN(C)CCn1c(=O)c2ccc(NCCN3CCNCC3)c3c(=O)c4ccccc4n(c1=O)c23 | 2.04 µM (inactive) | 1.69 µM (inactive) | 0.692 µM (active) | 0.586 µM (active) | 5.05 µM (inactive) | 3.47 µM (inactive) | 0.776 µM (active) | 2.56 µM (inactive) | 1.91 µM (inactive) | 1.13 µM (inactive) | 3.39 µM (inactive) | 0.378 µM (active) | 0.251 µM (active) | 7.33 µM (inactive) | 1.35 µM (inactive) | 0.0776 µM (active) | 0.345 µM (active) | 4.06 µM (inactive) | 1.79 µM (inactive) | 0.231 µM (active)

From ChEMBL document CHEMBL1201862, “PubChem BioAssay data set” (2004)
